Source: US20250320203A1, “4-(3H-PYRAZOLO[4,3-F]QUINOLIN-7-YL)-N-(2-(DIMETHYLAMINO)ETHYL)BENZAMIDE- OR HYDROXAMIC ACID COMPOUNDS, COMPOSITIONS, AND METHODS OF USE” (Purdue Research Foundation, priority 2022, published 2025)

Tests used:
haspin = biological target: T1, haspin (Homo sapiens, UniProt Q8TF76); experiment: ADP Glo Kinase Assay, haspin, 50 nM inhibitor; format: biochemical; conditions: 50 nM inhibitor conc.; means of triplicates; read-out: Percent Inhibition (%) Haspin
T1 sequence (Q8TF76 1-798): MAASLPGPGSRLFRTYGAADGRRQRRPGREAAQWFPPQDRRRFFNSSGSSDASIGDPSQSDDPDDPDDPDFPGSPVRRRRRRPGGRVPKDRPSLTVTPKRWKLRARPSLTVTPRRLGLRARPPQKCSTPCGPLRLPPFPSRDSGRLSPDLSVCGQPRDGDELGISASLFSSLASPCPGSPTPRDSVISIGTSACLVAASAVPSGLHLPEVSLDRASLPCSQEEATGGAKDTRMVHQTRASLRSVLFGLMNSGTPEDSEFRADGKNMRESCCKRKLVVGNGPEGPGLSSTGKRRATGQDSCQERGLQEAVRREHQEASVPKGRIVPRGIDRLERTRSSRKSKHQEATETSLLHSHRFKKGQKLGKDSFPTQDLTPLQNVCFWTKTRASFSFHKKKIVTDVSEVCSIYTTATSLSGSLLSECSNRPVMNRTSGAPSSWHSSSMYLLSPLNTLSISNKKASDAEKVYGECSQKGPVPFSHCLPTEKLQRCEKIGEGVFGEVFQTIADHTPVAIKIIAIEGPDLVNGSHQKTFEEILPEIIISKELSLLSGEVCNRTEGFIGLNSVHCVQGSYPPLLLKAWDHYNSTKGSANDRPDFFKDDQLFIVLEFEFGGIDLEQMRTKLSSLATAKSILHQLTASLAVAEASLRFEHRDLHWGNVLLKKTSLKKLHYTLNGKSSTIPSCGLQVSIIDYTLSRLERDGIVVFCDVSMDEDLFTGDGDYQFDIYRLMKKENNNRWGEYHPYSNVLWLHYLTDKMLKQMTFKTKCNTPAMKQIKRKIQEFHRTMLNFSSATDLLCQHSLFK
Experimental: (§1) With the amide kinase inhibitor library established, kinase inhibition and AML cell line (Molm-14, which harbors FLT3-ITD) growth inhibition were analyzed (Table 1). More specifically, Haspin and FLT3 inhibition were evaluated in-house via ADP Glo Kinase Assay (Promega, Madison, WI). […] Values reported are means of triplicates.
(§2) Briefly, the ADP-Glo Kinase Assay Kit was used to determine inhibition of haspin. Kinase Buffer (SignalChem Cat #K01-09; 25 mM MOPS, pH 7.2, 12.5 mM β-glycerol-phosphate, 25 mM MgCl2, 2 mM EDTA) was supplemented with dithiothreitol (DTT) (0.2 mM) and bovine serum albumin (BSA) (40 μg/mL) immediately prior to use. Reaction volumes of 5 μL containing 9 ng/μL kinase, 10 μM ATP, 50 nM inhibitor, and the appropriate peptide substrate (20 μM) were incubated for 3 hours, and then quenched with an equal volume (5 μL) of GLO reagent. After 40 minutes, 10 μL DET reagent was added and incubated for 1 hour before visualization on a Cytation™ 5 Cell Imaging Multi-Mode Reader (BioTek).

FLT3 = biological target: T2, FLT3 (Homo sapiens, UniProt P36888); experiment: ADP Glo Kinase Assay, FLT3, 50 nM inhibitor; format: biochemical; conditions: 50 nM inhibitor conc.; means of triplicates; read-out: Percent Inhibition (%) FLT3
T2 sequence (P36888 27-993): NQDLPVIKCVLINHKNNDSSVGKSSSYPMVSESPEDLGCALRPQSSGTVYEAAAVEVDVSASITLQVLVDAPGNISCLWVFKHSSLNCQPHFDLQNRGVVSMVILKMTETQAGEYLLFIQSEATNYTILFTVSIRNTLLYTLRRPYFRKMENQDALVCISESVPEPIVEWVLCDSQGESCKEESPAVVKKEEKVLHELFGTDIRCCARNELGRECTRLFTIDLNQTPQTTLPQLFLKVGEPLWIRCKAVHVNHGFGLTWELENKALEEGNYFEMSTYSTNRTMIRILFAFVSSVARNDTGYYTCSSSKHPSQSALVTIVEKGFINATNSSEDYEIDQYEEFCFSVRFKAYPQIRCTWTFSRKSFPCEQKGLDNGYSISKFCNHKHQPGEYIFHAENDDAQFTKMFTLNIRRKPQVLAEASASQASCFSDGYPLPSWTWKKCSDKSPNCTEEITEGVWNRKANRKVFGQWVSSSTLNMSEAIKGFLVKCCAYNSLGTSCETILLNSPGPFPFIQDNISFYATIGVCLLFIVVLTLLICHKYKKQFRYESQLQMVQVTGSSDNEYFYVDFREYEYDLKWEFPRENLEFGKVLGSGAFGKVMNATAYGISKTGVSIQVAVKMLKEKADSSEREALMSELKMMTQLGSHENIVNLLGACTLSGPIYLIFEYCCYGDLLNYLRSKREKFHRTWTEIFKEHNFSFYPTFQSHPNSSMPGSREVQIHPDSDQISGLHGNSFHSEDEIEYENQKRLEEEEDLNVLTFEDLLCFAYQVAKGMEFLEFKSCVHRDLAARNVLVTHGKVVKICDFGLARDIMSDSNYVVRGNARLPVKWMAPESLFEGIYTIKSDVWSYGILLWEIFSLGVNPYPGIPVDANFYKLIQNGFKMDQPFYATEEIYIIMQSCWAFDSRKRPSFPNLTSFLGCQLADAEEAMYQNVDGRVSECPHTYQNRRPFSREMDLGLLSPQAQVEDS
Experimental: as §1, §2

Molm-14 cells (FLT3-ITD) = experiment: AML cell line growth inhibition (CellTiter-Blue), 50 nM; format: cell-based; conditions: Homo sapiens, 50 nM inhibitor conc., means of triplicates, read-out: Percent Inhibition (%) Molm-14 growth
Experimental: as §1
More specifically, cells were cultured to confluence in RPMI medium supplemented with 10% fetal bovine serum and 1× Penicillin-Streptomycin (Gibco™). Cells were plated at 5,000 cells/well in 96 well plates. After 24-hour incubation at 37° C. in a 5% CO2 incubator, compounds diluted in the same media were added to the indicated final concentration and allowed to incubate at 37° C. in a 5% CO2 incubator for 72 hours. Viability was determined using CellTiter-Blue® Cell Viability Assay (Promega, Madison, WI) with absorbance readings at 570 nm performed on a Cytation™ 5 Cell Imaging Multi-Mode Reader (BioTek) 3 hours after addition. Appropriate vehicle and cell-free controls were included. GI50 readings were confirmed by two scientists on two separate days.

[1] = test system: histone H3 (Thr3) phosphorylation by haspin; experiment: Western blot, histone H3 (Thr3) phosphorylation by haspin in Molm-14 cells; format: cell-based, human; conditions: 24 hours, HSK205 5, 20 or 100 nM, gilteritinib 100 nM
Experimental: Whether Compound HSK205 does indeed inhibit haspin in AML cells was then evaluated, and immunoblotting was performed to confirm inhibition of histone H3 (Thr3)phosphorylation by haspin (FIG. 13A). […] The samples were subsequently analyzed for the phosphorylation of histone H3 (Thr3).
Acute myeloid leukemia cells (Molm-14) were incubated with various concentrations of compound as specified. Cells were collected and lysed, and protein concentrations were quantified relative to BSA standards. After protein denaturation, proteins were separated via SDS-PAGE electrophoresis and transferred to NC membranes. After blocking, overnight incubation with specific primary antibodies, and room temperature incubation for 2 hours with peroxidase-conjugated secondary antibodies, peroxidase activity was detected with SuperSignal West Pico reagents (Thermo Scientific) using a CCD camera LAS-4000 (Fujifilm). Bands were normalized using housekeeping gene, Actin. Values reported represent the means of triplicates and error bars represent SD. All specific antibodies were purchased from Cell Signaling.

CCc1nc(C(N)=O)c(Nc2ccc(N3CCC(N4CCN(C)CC4)CC3)c(OC)c2)nc1NC1CCOCC1 [gilteritinib, reference compound]
inhibition at 0.05 µM (haspin): 11% | inhibition at 0.05 µM (FLT3): 93% | inhibition at 0.05 µM (Molm-14 cells (FLT3-ITD)): 87% | phosphorylation of histone H3 (Thr3) [1]: did not display haspin inhibition
